The source of these data is the SangsterLogP compilation.

The term logP denotes the decadic logarithm of the partition coefficient of the neutral form, usually between octanol and water. Read a high logP as a more lipophilic compound. On to `CCc1noc(-c2ccc(N)cc2)n1`, for which the logP is 2.22.
As for `Cc1noc(-c2ccc(N)cc2)n1`, the logP came to 1.89.
The same measure for `Nc1ccc(-c2nnc(-c3ccccc3)o2)cc1`: 2.91; for `CCc1nnc(-c2ccc(N)cc2)o1`: 1.92.
For `CCCCc1nnc(-c2ccc(N)cc2)o1` the value was 2.66; for `Cc1nc(-c2ccc(N)cc2)no1`, 1.71.
The same measure for `Nc1ccc(-c2nc(Cc3ccccc3)no2)cc1`: 3.24; for `CC(C)c1noc(-c2ccc(N)cc2)n1`: 2.57; for `CCCc1noc(-c2ccc(N)cc2)n1`: 2.61.
With `CCCc1nc(-c2ccc(N)cc2)no1`, the logP came to 2.54.
For `Nc1ccc(-c2nnc(Cc3ccccc3)o2)cc1` the value was 2.82; for `CC(C)c1nnc(-c2ccc(N)cc2)o1`, 2.23.
The same measure for `CCCc1nnc(-c2ccc(N)cc2)o1`: 2.27.
With `Nc1ccc(-c2nc(-c3ccccc3)no2)cc1`, the logP is 3.48.
For `Cc1nnc(-c2ccc(N)cc2)o1` the value was 1.63; for `CCC(=O)c1ccc(N)cc1`, 1.65.
For `CCc1nsc(-c2ccc(N)cc2)n1` the value was 2.39.
Take `CCc1nc(-c2ccc(N)cc2)no1`: the logP amounted to 2.13.
For `CC(C)(C)c1nnc(-c2ccc(N)cc2)o1` the value was 2.53; for `CCCc1nnc(-c2ccc(N)cc2)s1`, 2.53.
For `CCCCC(=O)c1ccc(N)cc1` the value was 2.48.
